In patent US20250313548A1 (Actio Biosciences, Inc., priority 2023, published 2025):

Biological target: human, KCNT1 (Homo sapiens (Human), UniProt Q5JUK3)
Experiment: FLIPR Tl/K Flux Assay
Format: cell-based
Conditions: HEK293 cells stably expressing human KCNT1; Tl+ flux stimulated with EC80 of agonist Loxapine
Outline: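 HEK293 cells stably expressing human KCNT1 were loaded with FLIPR potassium dye in HEPES/HBSS pH 7.4 with 5 mM probenecid, 1 h at 25 °C, then given test compound for 30 min at 25 °C. Tl+ flux was triggered with chloride-free buffer containing Tl+ and EC80 loxapine and read 160 s. IC50 came from Hill fits of % inhibition.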

human, KCNT1, sequence (Q5JUK3 whole entry): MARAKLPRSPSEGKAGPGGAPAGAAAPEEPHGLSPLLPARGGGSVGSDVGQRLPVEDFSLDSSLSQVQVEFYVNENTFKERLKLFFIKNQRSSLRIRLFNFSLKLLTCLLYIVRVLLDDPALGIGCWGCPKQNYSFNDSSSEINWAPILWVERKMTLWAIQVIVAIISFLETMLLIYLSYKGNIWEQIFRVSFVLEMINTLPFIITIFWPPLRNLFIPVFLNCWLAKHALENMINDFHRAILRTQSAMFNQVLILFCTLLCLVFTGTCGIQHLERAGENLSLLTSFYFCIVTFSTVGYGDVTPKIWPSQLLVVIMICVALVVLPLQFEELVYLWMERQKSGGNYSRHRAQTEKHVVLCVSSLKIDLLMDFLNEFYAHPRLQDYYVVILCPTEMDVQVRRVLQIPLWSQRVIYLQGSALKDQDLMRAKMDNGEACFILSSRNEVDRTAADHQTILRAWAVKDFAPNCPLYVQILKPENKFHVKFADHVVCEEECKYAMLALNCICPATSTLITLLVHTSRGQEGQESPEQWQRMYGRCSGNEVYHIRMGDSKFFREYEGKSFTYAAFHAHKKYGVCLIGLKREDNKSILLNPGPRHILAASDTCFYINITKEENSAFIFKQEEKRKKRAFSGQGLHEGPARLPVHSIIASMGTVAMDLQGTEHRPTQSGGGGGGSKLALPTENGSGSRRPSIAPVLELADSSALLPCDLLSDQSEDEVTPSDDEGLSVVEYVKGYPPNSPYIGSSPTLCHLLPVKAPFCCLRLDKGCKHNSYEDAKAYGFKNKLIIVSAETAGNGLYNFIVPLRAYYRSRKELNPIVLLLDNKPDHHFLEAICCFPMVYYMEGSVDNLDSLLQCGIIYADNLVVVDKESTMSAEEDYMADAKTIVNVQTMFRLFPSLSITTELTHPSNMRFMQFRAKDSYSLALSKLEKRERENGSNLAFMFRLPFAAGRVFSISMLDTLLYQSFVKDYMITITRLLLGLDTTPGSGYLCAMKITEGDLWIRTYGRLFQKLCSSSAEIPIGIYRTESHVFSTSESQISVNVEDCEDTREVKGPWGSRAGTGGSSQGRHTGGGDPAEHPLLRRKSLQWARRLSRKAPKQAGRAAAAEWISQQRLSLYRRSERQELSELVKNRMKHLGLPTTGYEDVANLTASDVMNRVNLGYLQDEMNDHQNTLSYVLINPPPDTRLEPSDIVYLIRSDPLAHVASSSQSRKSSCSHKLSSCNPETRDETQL

Row | SMILES | IC50 [µM]
1 | Cn1nc(C(F)(F)F)cc1C(=O)N[C@@H]1CCc2nn(-c3ccnc(OC(F)(F)F)c3)cc21 [Compound I-73b] | 0.5 to 1
2 | Cn1nc(C(F)(F)F)cc1C(=O)N[C@H]1CCc2nn(-c3ccnc(OC(F)F)c3)cc21 [Compound I-74a] | < 0.25
3 | Cn1nc(C(F)(F)F)cc1C(=O)N[C@@H]1CCc2nn(-c3ccnc(OC(F)F)c3)cc21 [Compound I-74b] | > 1
4 | Cn1nc(C(F)(F)F)cc1C(=O)N[C@H]1CCc2nn(-c3ccnc(C4(C)CC4)c3)cc21 [Compound I-75a, (S)-1-Methyl-N-(2-(2-(1-methylcyclopropyl)pyridin-4-yl)-2,4,5,6-tetrahydrocyclopenta[c]pyrazol-4-yl)-3-(trifluoromethyl)-1H-pyrazole-5-carboxamide] | < 0.25
5 | Cn1nc(C(F)(F)F)cc1C(=O)N[C@H]1CCc2nn(-c3ccnc(C(C)(C)O)c3)cc21 [Compound I-76a] | > 1
6 | Cn1nc(C(F)(F)F)cc1C(=O)N[C@H]1CCc2nn(-c3ccnc(C(C)(F)F)c3)cc21 [Compound I-77a, (S)—N-(2-(2-(1,1-Difluoroethyl)pyridin-4-yl)-2,4,5,6-tetrahydrocyclopenta[c]pyrazol-4-yl)-1-methyl-3-(trifluoromethyl)-1H-pyrazole-5-carboxamide] | < 0.25
7 | Cn1nc(C(F)(F)F)cc1C(=O)N[C@@H]1CCc2nn(-c3ccnc(C(C)(F)F)c3)cc21 [Compound I-77b] | 0.5 to 1
8 | C#Cc1cc(-n2cc3c(n2)CC[C@@H]3NC(=O)c2cc(C(F)(F)F)nn2C)ccn1 [Compound I-78a] | < 0.25
9 | C#Cc1cc(-n2cc3c(n2)CC[C@H]3NC(=O)c2cc(C(F)(F)F)nn2C)ccn1 [Compound I-78b] | > 1
10 | Cn1nc(C(F)(F)F)cc1C(=O)N[C@H]1CCCc2sc(-c3ccnc(C(F)(F)F)c3)cc21 [Compound I-79a] | < 0.25
11 | Cn1nc(C(F)(F)F)cc1C(=O)N[C@H]1CCCc2sc(-c3ccnc(C(F)(F)F)c3)nc21 [Compound I-80a] | 0.5 to 1
12 | Cn1nc(C(F)(F)F)cc1C(=O)N[C@@H]1CCCc2sc(-c3ccnc(C(F)(F)F)c3)nc21 [Compound I-80b] | > 1
13 | Cn1nc(C(F)(F)F)cc1C(=O)N[C@H]1CCCc2cc(-c3ccnc(C(F)(F)F)c3)sc21 [Compound I-81a] | < 0.25
14 | Cn1nc(C(F)(F)F)cc1C(=O)N[C@H]1CCCc2nc(-c3ccnc(C(F)(F)F)c3)sc21 [Compound I-82a] | < 0.25
15 | Cn1nc(C(F)(F)F)cc1C(=O)NC1CCCc2nc(-c3ccnc(C(F)(F)F)c3)oc21 (stereo not shown) [Compound I-83] | < 0.25
16 | Cn1nc(C(F)(F)F)cc1C(=O)N[C@H]1CCCc2oc(-c3ccnc(C(F)(F)F)c3)nc21 [Compound I-84a] | < 0.25
17 | Cn1nc(C(F)(F)F)cc1C(=O)N[C@H]1CCCn2nc(-c3ccnc(C(F)(F)F)c3)nc21 [Compound I-86a, (S)-1-Methyl-3-(trifluoromethyl)-N-(2-(2-(trifluoromethyl)pyridin-4-yl)-5,6,7,8-tetrahydro-[1,2,4]triazolo[1,5-a]pyridin-8-yl)-1H-pyrazole-5-carboxamide] | < 0.25

Row | SMILES | IC50 [µM]
18 | Cn1nc(C(F)(F)F)cc1C(=O)N[C@H]1CCCc2cn(-c3ccnc(C(F)(F)F)c3)nc21 [Compound I-87a] | 0.5 to 1
19 | Cn1nc(C(F)(F)F)cc1C(=O)N[C@@H]1CCCc2cn(-c3ccnc(C(F)(F)F)c3)nc21 [Compound I-87b] | > 1
20 | Cn1nc(C(F)(F)F)cc1C(=O)N[C@H]1CCCc2nn(-c3ccnc(C(=O)O)c3)cc21 [Compound I-88a] | > 1
21 | Cn1nc(C(F)(F)F)cc1C(=O)N[C@H]1CCCc2cc(-c3ccnc(C(F)(F)F)c3)[nH]c21 [Compound I-89a, (S)-1-Methyl-3-(trifluoromethyl)-N-(2-(2-(trifluoromethyl)pyridin-4-yl)-4,5,6,7-tetrahydro-1H-indol-7-yl)-1H-pyrazole-5-carboxamide] | > 1
22 | Cc1c2c(nn1-c1ccnc(C(F)(F)F)c1)CCC[C@@H]2NC(=O)c1cc(C(F)(F)F)nn1C [Compound I-90a] | 0.25 to 0.5
23 | O=C(N[C@H]1CCc2nn(-c3ccnc(C(F)(F)F)c3)cc21)c1ccccc1 [Compound I-91a] | < 0.25
24 | O=C(N[C@@H]1CCc2nn(-c3ccnc(C(F)(F)F)c3)cc21)c1ccccc1 [Compound I-91b] | > 1
25 | Cc1ccccc1C(=O)N[C@H]1CCc2nn(-c3ccnc(C(F)(F)F)c3)cc21 [Compound I-92a] | < 0.25
26 | Cc1ccccc1C(=O)N[C@@H]1CCc2nn(-c3ccnc(C(F)(F)F)c3)cc21 [Compound I-92b] | > 1
27 | Cc1ccc(C(=O)N[C@H]2CCc3nn(-c4ccnc(C(F)(F)F)c4)cc32)c(C)c1 [Compound I-93a] | < 0.25
28 | Cc1ccc(C(=O)N[C@@H]2CCc3nn(-c4ccnc(C(F)(F)F)c4)cc32)c(C)c1 [Compound I-93b] | > 1
29 | COc1ccccc1C(=O)N[C@H]1CCc2nn(-c3ccnc(C(F)(F)F)c3)cc21 [Compound I-94a] | < 0.25
30 | COc1ccccc1C(=O)N[C@@H]1CCc2nn(-c3ccnc(C(F)(F)F)c3)cc21 [Compound I-94b] | > 1
31 | Cc1cc(Cl)ccc1C(=O)N[C@H]1CCc2nn(-c3ccnc(C(F)(F)F)c3)cc21 [Compound I-95a] | < 0.25
32 | Cc1cc(Cl)ccc1C(=O)N[C@@H]1CCc2nn(-c3ccnc(C(F)(F)F)c3)cc21 [Compound I-95b] | > 1
33 | CS(=O)(=O)c1ccc(C(=O)N[C@H]2CCc3nn(-c4ccnc(C(F)(F)F)c4)cc32)cc1 [Compound I-96a] | > 1

Next, values leading:

Row | IC50 [µM] | SMILES
34 | > 1 | CS(=O)(=O)c1ccc(C(=O)N[C@@H]2CCc3nn(-c4ccnc(C(F)(F)F)c4)cc32)cc1 [Compound I-96b]
35 | < 0.25 | Cc1cccc(C(=O)N[C@H]2CCc3nn(-c4ccnc(C(F)(F)F)c4)cc32)c1 [Compound I-97a]
36 | > 1 | Cc1cccc(C(=O)N[C@@H]2CCc3nn(-c4ccnc(C(F)(F)F)c4)cc32)c1 [Compound I-97b]
37 | < 0.25 | Cc1cc(Cl)cc(C(=O)N[C@H]2CCc3nn(-c4ccnc(C(F)(F)F)c4)cc32)c1 [Compound I-98a]
38 | > 1 | Cc1cc(Cl)cc(C(=O)N[C@@H]2CCc3nn(-c4ccnc(C(F)(F)F)c4)cc32)c1 [Compound I-98b]
39 | < 0.25 | O=C(N[C@H]1CCc2nn(-c3ccnc(C(F)(F)F)c3)cc21)c1cc(Cl)cc(Cl)c1 [Compound I-99a]
40 | 0.5 to 1 | O=C(N[C@@H]1CCc2nn(-c3ccnc(C(F)(F)F)c3)cc21)c1cc(Cl)cc(Cl)c1 [Compound I-99b]
41 | < 0.25 | O=C(N[C@H]1CCc2nn(-c3ccnc(C(F)(F)F)c3)cc21)c1cc(F)cc(F)c1 [Compound I-100a]
42 | > 1 | O=C(N[C@@H]1CCc2nn(-c3ccnc(C(F)(F)F)c3)cc21)c1cc(F)cc(F)c1 [Compound I-100b]
43 | < 0.25 | CN(C(=O)N[C@H]1CCc2nn(-c3ccnc(C(F)(F)F)c3)cc21)c1ccccc1 [Compound I-102a]
44 | < 0.25 | CC(C)(C)CC(=O)N[C@H]1CCc2nn(-c3ccnc(C(F)(F)F)c3)cc21 [Compound I-103a]
45 | > 1 | CC(C)(C)CC(=O)N[C@@H]1CCc2nn(-c3ccnc(C(F)(F)F)c3)cc21 [Compound I-103b]
46 | 0.5 to 1 | CC(C)(C)C(=O)N[C@H]1CCc2nn(-c3ccnc(C(F)(F)F)c3)cc21 [Compound I-104a]
47 | > 1 | CC(C)(C)C(=O)N[C@@H]1CCc2nn(-c3ccnc(C(F)(F)F)c3)cc21 [Compound I-104b]
48 | < 0.25 | CC(C)(C)OC(=O)N[C@H]1CCc2nn(-c3ccnc(C(F)(F)F)c3)cc21 [Compound I-105a]
49 | > 1 | CC(C)(C)OC(=O)N[C@@H]1CCc2nn(-c3ccnc(C(F)(F)F)c3)cc21 [Compound I-105b]
50 | < 0.25 | O=C(N[C@H]1CCc2nn(-c3ccnc(C(F)(F)F)c3)cc21)C1CCC(F)(F)CC1 [Compound I-106a]
51 | > 1 | O=C(N[C@@H]1CCc2nn(-c3ccnc(C(F)(F)F)c3)cc21)C1CCC(F)(F)CC1 [Compound I-106b]
52 | > 1 | O=C(N[C@@H]1CCCCc2nn(-c3ccnc(C(F)(F)F)c3)cc21)c1cc(Cl)cc(C(F)(F)F)c1 [Compound I-109b]
53 | < 0.25 | O=C(N[C@H]1CCCCc2nn(-c3ccnc(C4CC4)c3)cc21)c1cc(Cl)cc(C(F)(F)F)c1 [Compound I-110a]
54 | < 0.25 | O=C(N[C@H]1CCCn2nc(-c3ccnc(C4CC4)c3)cc21)c1cc(Cl)cc(C(F)(F)F)c1 [Compound I-111a]
55 | < 0.25 | N#Cc1cccc(C(=O)N[C@H]2CCCc3nn(-c4ccnc(C(F)(F)F)c4)cc32)c1 [Compound I-112a, (S)-3-Cyano-N-(2-(2-(trifluoromethyl)pyridin-4-yl)-4,5,6,7-tetrahydro-2H-indazol-4-yl)benzamide]
56 | 0.25 to 0.5 | Cn1nc(C#N)cc1C(=O)N[C@H]1CCCc2nn(-c3ccnc(C(F)(F)F)c3)cc21 [Compound I-113a]
57 | < 0.25 | Cn1nc(C(F)(F)F)cc1C(=O)N[C@H]1CCCc2cnc(-c3ccnc(C(F)(F)F)c3)cc21 [Compound I-116a]
58 | < 0.25 | Cn1nc(C(F)(F)F)cc1C(=O)N[C@H]1CCCn2nc(-c3cc(C(F)(F)F)cs3)cc21 [Compound I-117a]
59 | < 0.25 | Cn1nc(C(F)(F)F)cc1C(=O)N[C@H]1CCc2cnc(-c3ccnc(C(F)(F)F)c3)cc21 [Compound I-118a]
60 | < 0.25 | O=C(N[C@H]1CCn2nc(-c3ccnc(C(F)(F)F)c3)cc21)c1cc(F)cc(F)c1 [Compound I-120a, (S)-3,5-difluoro-N-(2-(2-(trifluoromethyl)pyridin-4-yl)-5,6-dihydro-4H-pyrrolo[1,2-b]pyrazol-4-yl)benzamide]
61 | < 0.25 | Cn1nc(C(F)(F)F)cc1C(=O)N[C@H]1CCCc2oc(-c3ccnc(C4CC4)c3)nc21 [Compound I-121a, (S)—N-(2-(2-Cyclopropylpyridin-4-yl)-4,5,6,7-tetrahydrobenzo[d]oxazol-4-yl)-1-methyl-3-(trifluoromethyl)-1H-pyrazole-5-carboxamide]
